Data set [1] concerns Plasmodium falciparum. Kind of data set: NOVARTIS: Inhibition of Plasmodium falciparum 3D7 (drug-susceptible) proliferation in erythrocyte-based infection assay. It counts as functional, organism-based. The following applies: Plasmodium falciparum, 3D7.
The test system of data set [2] is Plasmodium falciparum. Kind of data set: NOVARTIS: Inhibition of Plasmodium falciparum W2 (drug-resistant) proliferation in erythrocyte-based infection assay. It counts as functional, organism-based. The following applies: Plasmodium falciparum, W2; read-out: EC50.
Data set [3] can be described thus: NOVARTIS: Cytotoxicity against human hepatocellular carcinoma cell line (Huh7). It counts as toxicity, cell-based, Huh-7. The following applies: Huh7 cells (hepatocellular carcinoma cell line).

Bounds are passed on as bounds.

As usually defined, the EC50 is the concentration that produces a half-maximal response. Broadly, the CC50 is the concentration giving 50% cytotoxicity. A higher CC50 goes with better tolerance by the cells.

For the compound `Cc1ccc(NC(=S)NCCO)cc1C`, the values for the EC50 with Plasmodium falciparum [1] and with Plasmodium falciparum [2] were 1810 nM and 1020 nM, respectively. This compound gave a CC50 in data set [3] greater than 100 µM.

Regarding `COc1cc(C=NNC(=O)c2ccc(C(=O)NN=Cc3ccc(O)c(OC)c3)cc2)ccc1O`, the figures for the EC50 in the data set on Plasmodium falciparum [1] and with Plasmodium falciparum [2] were 652 nM and 1030 nM, respectively. In data set [3], this compound yielded a CC50 greater than 100 µM.

As for `O=C(Nc1ccc(C2=NCCN2)c(Cl)c1)c1cccc(C(=O)Nc2ccc(C3=NCCN3)c(Cl)c2)c1`, the EC50 in the data set with Plasmodium falciparum [1] is 307 nM; with Plasmodium falciparum [2], 103 nM. Also, the CC50 in data set [3] was greater than 10 µM.

`OC(CCN1CCN(C(c2ccccc2)c2ccccc2)CC1)c1ccccc1` (centres undefined): the EC50 in the data set with Plasmodium falciparum [1] is 4650 nM; with Plasmodium falciparum [2], 1030 nM. The same compound registered a CC50 in data set [3] greater than 100 µM.

Regarding `CN(C)c1nnc(C(C#N)=Cc2cc(C(=O)c3cccc(Cl)c3)cn2C)o1`, the EC50 is greater than 12500 nM with Plasmodium falciparum [1] and 1030 nM in the data set with Plasmodium falciparum [2]. Further, the CC50 in data set [3] was greater than 100 µM.

Take `COc1cc(NC(C)CCCN(Cc2ccc(OC)c(OC)c2)C(=O)c2ccccc2)c2ncccc2c1` (centres undefined): the EC50 with Plasmodium falciparum [1] worked out at 529 nM; with Plasmodium falciparum [2] it was 103 nM. Moreover, the CC50 in data set [3] is greater than 10 µM.

As for `Cc1ccnc(Nc2nc(-c3c(C)nc4sccn34)cs2)c1`, the EC50 in the data set with Plasmodium falciparum [1] is 1500 nM; in the data set on Plasmodium falciparum [2] it was 753 nM. In data set [3], this compound came in with a half-maximal cytotoxic concentration (CC50) greater than 73.5 µM.

In the case of `CC(CN1CCC(n2cc(C(=O)N3CCCC3)nn2)CC1)c1ccccc1` (centres undefined), the half-maximal effective concentration (EC50) with Plasmodium falciparum [1] came to 2410 nM; in the data set with Plasmodium falciparum [2], 1020 nM. The CC50 in data set [3] was greater than 100 µM.

Consider `Cc1cccc(NS(=O)(=O)c2ccc3[nH]c(=O)ccc3c2)c1C`, for which the EC50 was greater than 12500 nM with Plasmodium falciparum [1] and 838 nM in the data set on Plasmodium falciparum [2]. It took 81.8 µM to reach half-maximal cytotoxicity in data set [3] (CC50).

As for `Cc1ccc(Cn2c(=N)n(CC(O)c3ccc(Cl)c(Cl)c3)c3ccccc32)cc1` (centres undefined), the EC50 amounted to 107 nM in the data set on Plasmodium falciparum [1] and 61.3 nM in the data set on Plasmodium falciparum [2]. Besides, in data set [3], the CC50 was determined as 6 µM.

Regarding `O[C@@]1(c2cc3ccccc3s2)CN2CCC1CC2`, the 50% effective concentration (EC50) stood at 177 nM in the data set on Plasmodium falciparum [1] and 101 nM in the data set with Plasmodium falciparum [2]. In data set [3], the cytotoxic concentration (CC50) was greater than 10 µM.

Turning to `CCCCOc1cccc(C(=O)N(Cc2cccs2)c2ccc(OC)cc2)c1`, the EC50 in the data set on Plasmodium falciparum [1] worked out at 124 nM; in the data set on Plasmodium falciparum [2], 62.1 nM. In data set [3], the midpoint of cytotoxicity, the CC50, lay at 6.13 µM.

Regarding `O=C(C=Cc1ccccc1)NNC(=O)c1cccnc1`, the EC50 was greater than 12500 nM in the data set on Plasmodium falciparum [1] and 1010 nM in the data set on Plasmodium falciparum [2]. In addition, the CC50 in data set [3] was greater than 100 µM.

As to `CCc1ccc(C(=O)C[n+]2cc(-c3ccc(C)cc3)n3c2CCC3)cc1`, the EC50 in the data set on Plasmodium falciparum [1] was 764 nM; in the data set on Plasmodium falciparum [2], 333 nM. Further, the 50% cytotoxic concentration (CC50) in data set [3] turned out to be 32.7 µM.

Turning to `N#CC(=Cc1cn(Cc2ccc(Cl)cc2Cl)c2ccccc12)c1nc2ccccc2[nH]1`, the figures for the concentration giving a half-maximal response (EC50) in the data set on Plasmodium falciparum [1] and in the data set with Plasmodium falciparum [2] were 270 nM and 1020 nM, respectively. The compound further had a CC50 in data set [3] greater than 100 µM.

On to `CC[n+]1c(/C=C/c2ccc(SC)cc2)ccc2ccccc21`, for which the EC50 worked out at 43.6 nM in the data set on Plasmodium falciparum [1] and 102 nM in the data set on Plasmodium falciparum [2]. In addition, the CC50 in data set [3] is greater than 10 µM.

With `CN(C)CCN(C)Cc1cc(Br)cs1`, the EC50 in the data set with Plasmodium falciparum [1] is greater than 2340 nM; with Plasmodium falciparum [2] it was 1010 nM. In data set [3], this compound returned a CC50 greater than 100 µM.

As for `CN1CCCC1CCNCc1cc(-c2ccnc3cc(Cl)ccc23)ccc1O` (centres undefined), the figures for the 50% effective concentration (EC50) in the data set with Plasmodium falciparum [1] and in the data set on Plasmodium falciparum [2] were 31.4 nM and 153 nM, respectively. The same compound gave a half-maximal cytotoxic concentration (CC50) in data set [3] of 15.2 µM.

As to `O=C(CCl)Nc1ccc(N2CCCCC2)cc1`, the EC50 in the data set on Plasmodium falciparum [1] worked out at 797 nM; in the data set with Plasmodium falciparum [2] it was 417 nM. In addition, the cytotoxic concentration (CC50) in data set [3] was determined as 41.2 µM.

Regarding `Oc1ccccc1-c1nc2ncccn2c1Nc1cccc(C(F)(F)F)c1`, the EC50 in the data set on Plasmodium falciparum [1] came out at 2120 nM; in the data set with Plasmodium falciparum [2], 1020 nM. In data set [3], this compound came in with a CC50 greater than 100 µM.

For the compound `O=c1c2sccc2nc(SCc2cccc([N+](=O)[O-])c2)n1-c1ccc(Br)cc1`, the results for the EC50 in the data set on Plasmodium falciparum [1] and with Plasmodium falciparum [2] were 3310 nM and 1020 nM, respectively. This compound also came in with a cytotoxic concentration (CC50) in data set [3] greater than 100 µM.

As to `COc1ccc(-c2c[n+](Cc3ccccc3Cl)c3n2CCC3)cc1`, the EC50 was determined as 578 nM with Plasmodium falciparum [1] and 532 nM with Plasmodium falciparum [2]. In data set [3], the CC50 came to 52.5 µM.

For `COc1ccc(S(=O)(=O)N=C2C=C(Nc3ccccc3)C(=O)c3ccccc32)cc1`, the figures for the EC50 in the data set with Plasmodium falciparum [1] and in the data set on Plasmodium falciparum [2] were 93.3 nM and 122 nM, respectively. Further, in data set [3], the CC50 came to 12 µM.

The values above are taken from ChEMBL document CHEMBL1156829 (Proc Natl Acad Sci U S A, 2008).
